From ChEMBL document CHEMBL3739316, “Novel orally active inhibitors of β-1,3-glucan synthesis derived from enfumafungin” (Bioorg Med Chem Lett, 2015)
In brackets after ≈: the same amount, converted by molar mass.

Assays:
Candida albicans [1] = experiment: Antifungal activity against Candida albicans MY1055 after 24 hrs by liquid microdilution assay in presence of human serum; assay type: functional; details: MY1055, 24 h
Aspergillus fumigatus = experiment: Antifungal activity against Aspergillus fumigatus MF5668 after 24 hrs by liquid microdilution assay; assay type: functional; details: MF5668, 24 h, read-out: MEC
Candida albicans [2] = experiment: Antifungal activity against Candida albicans MY1055 after 24 hrs by liquid microdilution assay; assay type: functional; details: MY1055, 24 h
Beta-1,3-glucan synthase = target: T1, Beta-1,3-glucan synthase (Candida albicans, UniProt O13383); experiment: Displacement of UDP-[3H]glucose from beta-1,3-glucan synthase in Candida albicans MY1055 microsomal membranes incubated for 2 hrs
T1 sequence (O13383 whole entry): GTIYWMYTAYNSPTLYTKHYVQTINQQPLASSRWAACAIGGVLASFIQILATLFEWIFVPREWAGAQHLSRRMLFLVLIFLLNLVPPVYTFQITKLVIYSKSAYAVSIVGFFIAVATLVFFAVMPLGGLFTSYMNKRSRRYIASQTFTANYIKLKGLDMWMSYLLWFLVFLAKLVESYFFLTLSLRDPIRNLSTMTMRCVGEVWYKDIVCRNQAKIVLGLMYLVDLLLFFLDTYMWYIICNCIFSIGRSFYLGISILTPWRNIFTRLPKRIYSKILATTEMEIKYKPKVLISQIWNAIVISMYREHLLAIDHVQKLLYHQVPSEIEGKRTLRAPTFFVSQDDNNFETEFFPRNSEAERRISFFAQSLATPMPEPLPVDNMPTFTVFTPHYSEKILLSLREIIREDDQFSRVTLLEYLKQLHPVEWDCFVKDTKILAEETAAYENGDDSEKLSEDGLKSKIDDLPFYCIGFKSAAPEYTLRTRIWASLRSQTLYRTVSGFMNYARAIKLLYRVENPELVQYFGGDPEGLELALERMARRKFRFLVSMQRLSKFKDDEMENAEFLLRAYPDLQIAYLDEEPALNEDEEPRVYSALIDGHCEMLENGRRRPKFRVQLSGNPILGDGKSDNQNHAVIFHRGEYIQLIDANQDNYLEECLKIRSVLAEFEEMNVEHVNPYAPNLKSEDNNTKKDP

[3] = Oral bioavailability in mouse; assay type: ADME, organism-based; details: in vivo
Candida albicans [4] = experiment: Antifungal activity against Candida albicans MY1055 in DBA/2 mouse candidiasis model assessed as change in CFU per gram of kidney at 6.25 mg/kg, po bid after 4 days by Target Organ Kidney Assay relative to sham treated control; assay type: functional
Mus musculus = experiment: Dose normalized AUC in orally dosed mouse; assay type: ADME, organism-based; details: in vivo, po
Candida albicans [5] = experiment: Antifungal activity against Candida albicans MY1055 in DBA/2 mouse candidiasis model assessed as change in CFU per gram of kidney at 25 mg/kg, po bid after 4 days by Target Organ Kidney Assay relative to sham treated control; assay type: functional
Candida albicans [6] = experiment: Antifungal activity against Candida albicans MY1055 in DBA/2 mouse candidiasis model assessed as change in CFU per gram of kidney at 12.5 mg/kg, po bid after 4 days by Target Organ Kidney Assay relative to sham treated control; assay type: functional

Row | MIC (Candida albicans [1]) [µg/mL] | MIC (Candida albicans [2]) [µg/mL] | IC50 (Beta-1,3-glucan synthase) [nM] | bioavailability [3] [%] | AUC/dose (Mus musculus) [µM·kg·h/mg] | Structure (SMILES) | minimal effective concentration (Aspergillus fumigatus) [µg/mL] | Activity (Candida albicans [4]) [deltalog10CFU] | Activity (Candida albicans [5]) [deltalog10CFU] | Activity (Candida albicans [6]) [deltalog10CFU]
1 | > 32 | 32 (≈ 42.6 µM) | 1200 |  |  | CC(C)[C@@H](C)[C@@]1(C)CC[C@]2(C)[C@H]3CC[C@H]4C5(C)COC[C@@]4(C[C@@H](n4cc6ccccc6n4)[C@@H]5O[C@@H]4O[C@H](CO)[C@@H](O)[C@H](O)[C@H]4O)C3=CC[C@@]2(C)[C@@H]1C(=O)O | 2 |  |  | 
2 | > 32 | 32 (≈ 42.6 µM) | > 1330 |  |  | CC(C)[C@@H](C)[C@@]1(C)CC[C@]2(C)[C@H]3CC[C@H]4C5(C)COC[C@@]4(C[C@@H](n4ncc6ccccc64)[C@@H]5O[C@@H]4O[C@H](CO)[C@@H](O)[C@H](O)[C@H]4O)C3=CC[C@@]2(C)[C@@H]1C(=O)O | 8 |  |  | 
3 | > 32 | 8 (≈ 12.2 µM) | 71.9 |  |  | Cc1nnnn1[C@@H]1C[C@@]23COCC(C)([C@H]1OC[C@](C)(N)C(C)C)[C@@H]2CC[C@H]1C3=CC[C@@]2(C)[C@H](C(=O)O)[C@@](C)([C@H](C)C(C)C)CC[C@]12C | 4 |  |  | 
4 | 16 | 0.25 (≈ 0.397 µM) | 22.2 | 31 | 0.73 | CC(=O)O[C@@H]1C[C@@]23COCC(C)([C@H]1OC[C@@](C)(N)C(C)C)[C@@H]2CC[C@H]1C3=CC[C@@]2(C)[C@H](C(=O)O)[C@@](C)([C@H](C)C(C)C)CC[C@]12C | < 0.03 | -0.5 | -1.9 | -0.1
5 | > 32 | 1 (≈ 1.53 µM) | 24.5 |  |  | Cc1nnn([C@@H]2C[C@@]34COCC(C)([C@H]2OC[C@](C)(N)C(C)C)[C@@H]3CC[C@H]2C4=CC[C@@]3(C)[C@H](C(=O)O)[C@@](C)([C@H](C)C(C)C)CC[C@]23C)n1 | 0.5 |  |  | 
6 | > 32 | 8 (≈ 11.5 µM) | 81.8 |  |  | CC(=O)Nc1nnnn1[C@@H]1C[C@@]23COCC(C)([C@H]1OC[C@](C)(N)C(C)C)[C@@H]2CC[C@H]1C3=CC[C@@]2(C)[C@H](C(=O)O)[C@@](C)([C@H](C)C(C)C)CC[C@]12C | < 0.03 |  |  | 
7 | 32 | 2 (≈ 2.85 µM) | 342 |  |  | CC(C)[C@@H](C)[C@@]1(C)CC[C@]2(C)[C@H]3CC[C@H]4C5(C)COC[C@@]4(C[C@@H](n4cncn4)[C@@H]5O[C@@H]4O[C@H](CO)[C@@H](O)[C@H](O)[C@H]4O)C3=CC[C@@]2(C)[C@@H]1C(=O)O | 0.125 |  |  | 
8 | 32 | 16 (≈ 22.5 µM) | 14.1 | 30 | 0.74 | CCCCN[C@@](C)(CO[C@H]1[C@H](n2nnc(N)n2)C[C@@]23COCC1(C)[C@@H]2CC[C@H]1C3=CC[C@@]2(C)[C@H](C(=O)O)[C@@](C)([C@H](C)C(C)C)CC[C@]12C)C(C)C | 0.125 | -0.1 | -2.6 | -1.2
9 | > 32 | > 32 | 1410 |  |  | CC(C)[C@@H](C)[C@@]1(C)CC[C@]2(C)[C@H]3CC[C@H]4C5(C)COC[C@@]4(C[C@@H](n4ccc6ccccc64)[C@@H]5O[C@@H]4O[C@H](CO)[C@@H](O)[C@H](O)[C@H]4O)C3=CC[C@@]2(C)[C@@H]1C(=O)O | 4 |  |  | 
10 | > 32 | > 32 | 1410 |  |  | CC(C)[C@@H](C)[C@@]1(C)CC[C@]2(C)[C@H]3CC[C@H]4C5(C)COC[C@@]4(C[C@@H](n4nccn4)[C@@H]5O[C@@H]4O[C@H](CO)[C@@H](O)[C@H](O)[C@H]4O)C3=CC[C@@]2(C)[C@@H]1C(=O)O | 0.5 |  |  | 
11 | > 32 | 4 (≈ 6.11 µM) | 56.5 |  |  | CC(C)[C@@H](C)[C@@]1(C)CC[C@]2(C)[C@H]3CC[C@H]4C5(C)COC[C@@]4(C[C@@H](n4nnnc4N)[C@@H]5OC[C@](C)(N)C(C)C)C3=CC[C@@]2(C)[C@@H]1C(=O)O | 0.25 |  |  | 
12 | > 32 | 0.5 (≈ 0.794 µM) | 9.52 | 39 | 1.38 | CC(=O)O[C@@H]1C[C@@]23COCC(C)([C@H]1OC[C@](C)(N)C(C)C)[C@@H]2CC[C@H]1C3=CC[C@@]2(C)[C@H](C(=O)O)[C@@](C)([C@H](C)C(C)C)CC[C@]12C | 0.06 | -0.6 | -2.2 | -0.6
13 | 32 | 2 (≈ 2.75 µM) | 578 |  |  | CC(C)[C@@H](C)[C@@]1(C)CC[C@]2(C)[C@H]3CC[C@H]4C5(C)COC[C@@]4(C[C@@H](Oc4ccccc4)[C@@H]5O[C@@H]4O[C@H](CO)[C@@H](O)[C@H](O)[C@H]4O)C3=CC[C@@]2(C)[C@@H]1C(=O)O | 0.125 |  |  | 
14 | 32 | 1 (≈ 1.66 µM) | 74.8 | 37 | 1.22 | CC(=O)O[C@@H]1C[C@@]23COCC(C)([C@H]1OCC(C)(C)N)[C@@H]2CC[C@H]1C3=CC[C@@]2(C)[C@H](C(=O)O)[C@@](C)([C@H](C)C(C)C)CC[C@]12C | < 0.03 |  | -1.4 | 
15 | > 32 | 2 (≈ 2.85 µM) | 813 |  |  | CC(C)[C@@H](C)[C@@]1(C)CC[C@]2(C)[C@H]3CC[C@H]4C5(C)COC[C@@]4(C[C@@H](n4cccn4)[C@@H]5O[C@@H]4O[C@H](CO)[C@@H](O)[C@H](O)[C@H]4O)C3=CC[C@@]2(C)[C@@H]1C(=O)O | 0.06 |  |  | 
16 | > 32 | 4 (≈ 5.7 µM) |  |  |  | CC(C)[C@@H](C)[C@@]1(C)CC[C@]2(C)[C@H]3CC[C@H]4C5(C)COC[C@@]4(C[C@@H](n4cnnc4)[C@@H]5O[C@@H]4O[C@H](CO)[C@@H](O)[C@H](O)[C@H]4O)C3=CC[C@@]2(C)[C@@H]1C(=O)O | 1 |  |  | 
17 | > 32 | 2 (≈ 2.7 µM) | 634 |  |  | COc1ccc([C@@H]2C[C@@]34COCC(C)([C@H]2O[C@@H]2O[C@H](CO)[C@@H](O)[C@H](O)[C@H]2O)[C@@H]3CC[C@H]2C4=CC[C@@]3(C)[C@H](C(=O)O)[C@@](C)([C@H](C)C(C)C)CC[C@]23C)cc1 | 0.25 |  |  | 
18 | > 32 | > 32 | > 14200 |  |  | CC(C)[C@@H](C)[C@@]1(C)CC[C@]2(C)[C@H]3CC[C@H]4C5(C)COC[C@@]4(C[C@@H](n4ccnn4)[C@@H]5O[C@@H]4O[C@H](CO)[C@@H](O)[C@H](O)[C@H]4O)C3=CC[C@@]2(C)[C@@H]1C(=O)O | 2 |  |  | 
19 | 16 | 0.25 (≈ 0.359 µM) | 86.1 |  |  | CC(=O)Nc1nnn([C@@H]2C[C@@]34COCC(C)([C@H]2OC[C@](C)(N)C(C)C)[C@@H]3CC[C@H]2C4=CC[C@@]3(C)[C@H](C(=O)O)[C@@](C)([C@H](C)C(C)C)CC[C@]23C)n1 | < 0.03 |  |  | 
